Earlier results, collected in publication PMC12308805, “Ultrahigh-Throughput Virtual Screening Strategies against PPI Targets: A Case Study of STAT Inhibitors” (Journal of Chemical Information and Modeling, 2025).
Square brackets hold non-standard residues; d marks the D form. Peptide text beside a SMILES is read from it. * marks the point of attachment. pY = N[C@@H](Cc1ccc(OP(=O)(O)O)cc1)C(=O)O; Propionyl = CCC(=O)*

test system: STAT3; details: cited from earlier work

| SMILES | Type (known STAT3 active) |
| --- | --- |
| CCC(=O)N[C@@H](Cc1ccc(OP(=O)(O)O)cc1)C(=O)N[C@@H](CC(C)C)C(=O)N1CCC[C@H]1C(=O)N[C@@H](CCC(N)=O)C(=O)N[C@H](C(N)=O)[C@@H](C)O [CHEMBL197580] (Propionyl-[pY]LPQT-NH2) | Active |
| CC(C)C[C@H](NC(=O)/C=C/c1ccc(OP(=O)(O)O)cc1)C(=O)N1CCC[C@H]1C(=O)N[C@@H](CC(N)=O)C(=O)NCc1ccccc1 [CHEMBL573901] | Active |

same assay, conditions: sheet 6QHD_actives_decoys, retrospective screening set for STAT3 SH2 domain (PDB 6QHD); decoys are presumed inactives, not tested; ref DUD-E; cited from earlier work

| SMILES | Type |
| --- | --- |
| CCN(CC)c1ccc(/C=N/Nc2nnc(SCC(=O)Nc3ccc(OC)cc3OC)n2N)c(O)c1 [Decoy877] | Inactive (Decoy) |
| COc1cc(NC(=O)CCSc2nnc(N/N=C/c3c(O)ccc4ccccc34)n2N)cc(OC)c1 [Decoy871] | Inactive (Decoy) |
| CC[C@@]1(c2ccccc2)NC(=O)N(CC(=O)Nc2ccc(S(=O)(=O)Nc3ncccn3)cc2)C1=O [Decoy743] | Inactive (Decoy) |
| COC(=O)c1[nH]c(C)c(C(=O)C2=C(O)C(=O)N(CCN3CCOCC3)[C@@H]2c2cc(OC)c(OC)c(OC)c2)c1C [Decoy872] | Inactive (Decoy) |
| CCN(CC)C(=O)c1c[nH]c2ccc(S(=O)(=O)Nc3ccc4c(c3)OCCO4)cc2c1=O [Decoy907] | Inactive (Decoy) |
| CC1=C/C(=C(\c2cc(C)c(O)c(CN(C)CC(=O)O)c2)c2ccccc2S(=O)(=O)O)C=C(CN(C)CC(=O)O)C1=O [Decoy767] | Inactive (Decoy) |
| Cc1c(C#N)c(NC(=O)CSc2nnc(COc3ccccc3F)n2N)n(C[C@@H]2CCCO2)c1C [Decoy954] | Inactive (Decoy) |
| C[C@@H](NC(=O)[C@@H](N)Cc1ccc(O)cc1)C(=O)NCC(=O)N[C@@H](Cc1ccccc1)C(=O)NNC(=O)[C@H](Cc1ccccc1)NC(=O)CNC(=O)[C@@H](C)NC(=O)[C@@H](N)Cc1ccc(O)cc1 [Decoy945] | Inactive (Decoy) |
| CCCCN(CC)S(=O)(=O)c1cc([N+](=O)[O-])ccc1NN/C=C1/C(=O)N=C(O)NC1=O [Decoy950] | Inactive (Decoy) |
| CCSc1nnc(NC(=O)CSc2nnc(CNC(=O)c3cccs3)n2-c2ccccc2OC)s1 [Decoy853] | Inactive (Decoy) |
| O=C(OC[C@@H]1O[C@H](Oc2ccc(O)cc2COC(=O)[C@@]2(O)[C@@H](O)CCC(=O)[C@@H]2O)[C@H](OC(=O)[C@H]2C=CCC2)[C@H](O)[C@@H]1O)[C@H]1C=CCC1 [Decoy886] | Inactive (Decoy) |
| CCOC(=O)c1[nH]c(C)c(C(=O)C2=C(O)C(=O)N(CCCn3ccnc3)[C@H]2c2cc(OC)c(OC)c(OC)c2)c1C [Decoy756] | Inactive (Decoy) |
| C[C@H](CCC(=O)NCCS(=O)(=O)O)[C@H]1CC[C@H]2[C@H]3[C@H](O)C[C@@H]4C[C@H](OS(=O)(=O)O)CC[C@]4(C)[C@H]3C[C@H](O)[C@]12C [Decoy830] | Inactive (Decoy) |
| C/C(=C(\CCO)SS/C(CCO)=C(\C)N(C=O)Cc1cnc(C)nc1N)N(C=O)Cc1cnc(C)nc1N [Decoy781] | Inactive (Decoy) |
| C[C@H](O)C[C@H](O)[C@@H](SC[C@@H](O)C(=O)O)[C@@H](O)/C=C/Cc1cc2c(Cl)c(O)cc(O)c2c(=O)o1 [Decoy782] | Inactive (Decoy) |
| COc1cc(/C=C/C(=O)OC[C@H]2O[C@H](O[C@]3(CO)O[C@H](CO)[C@@H](O)[C@@H]3O)[C@H](O)[C@@H](O)[C@@H]2O)cc(OC)c1O [Decoy815] | Inactive (Decoy) |
| CC(=O)N[C@@H]1[C@@H](OC(C)=O)[C@H](OC(C)=O)[C@@H](COC(C)=O)O[C@H]1Sc1nnc(-c2ccccc2)n1C(C)C [Decoy955] | Inactive (Decoy) |

same assay, conditions: sheet 6QHD_actives_decoys; known STAT3 actives of the retrospective screening set; ref ChEMBL / literature; cited from earlier work

| SMILES | Type (known STAT3 active) |
| --- | --- |
| COC(=O)[C@H](CCC(N)=O)NC(=O)[C@@H]1Cc2cccc3c2N1C(=O)[C@@H](NC(=O)/C=C/c1ccc(OP(=O)(O)O)cc1)CC3 [CHEMBL503365] | Active |
| CC(C)C[C@H](NC(=O)/C=C/c1ccc(OP(=O)(O)O)cc1)C(=O)N1CCC[C@H]1C(=O)N[C@@H](CCC(N)=O)COCc1ccccc1 [CHEMBL573904] | Active |

same assay, conditions: sheet 6QHD_actives_decoys; retrospective screening set for STAT3 SH2 domain (PDB 6QHD); […]; ref DUD-E; cited from earlier work

| SMILES | Type |
| --- | --- |
| O=C(CCC(=O)Nc1ccc(S(=O)(=O)Nc2nccs2)cc1)Nc1ccc(S(=O)(=O)Nc2nccs2)cc1 [Decoy422] | Inactive (Decoy) |
| COc1ccccc1[C@H](O)CNC(=O)c1cc(NS(=O)(=O)c2cccc([N+](=O)[O-])c2)ccc1O [Decoy566] | Inactive (Decoy) |
| C=C(CO[C@H]1O[C@@H](CO[C@H]2OC[C@@H](O)[C@@H](O)[C@H]2O)[C@@H](O)[C@@H](O)[C@H]1O)[C@H]1Cc2c(ccc3c2O[C@@H]2COc4cc(OC)c(OC)cc4[C@H]2C3=O)O1 [Decoy686] | Inactive (Decoy) |

same assay, conditions: sheet 6QHD_actives_decoys; retrospective screening set for STAT3 SH2 domain (PDB 6QHD); decoys generated with DUD-E and presumed inactive, not tested; ref DUD-E; cited from earlier work

| SMILES | Type |
| --- | --- |
| COc1ccc(-c2cc(=O)c3c(O)c(OC)c(O[C@@H]4O[C@H](CO[C@@H]5O[C@@H](C)[C@H](O)[C@@H](O)[C@H]5O)[C@@H](O)[C@H](O)[C@H]4O)cc3o2)cc1 [Decoy661] | Inactive (Decoy) |
| CC(=O)N[C@@H]1[C@@H](O)[C@H](O[C@@H]2O[C@H](CO)[C@H](O)[C@H](O[C@]3(C(=O)O)C[C@H](O)[C@@H](NC(C)=O)[C@H]([C@H](O)[C@H](O)CO)O3)[C@H]2O)[C@@H](CO)O[C@@H]1O [Decoy638] | Inactive (Decoy) |
| CCOC(=O)[C@@](NC(=O)c1cccc(Cl)c1)(Nc1ccc(S(=O)(=O)Nc2ccc(OC)nn2)cc1)C(F)(F)F [Decoy464] | Inactive (Decoy) |
| CN(Cc1cnc2nc(N)nc(N)c2n1)c1ccc(C(=O)N[C@H](CCC(=O)NCCNC(=O)CCCC[C@@H]2SC[C@@H]3NC(=O)N[C@@H]32)C(=O)O)cc1 [Decoy666] | Inactive (Decoy) |
| COc1cc(NC(=O)COC(=O)c2cc(OC)c(OC)cc2NC(=O)c2ccco2)cc(OC)c1 [Decoy388] | Inactive (Decoy) |
| CCCCn1nc(NC(=O)c2cc(OCC)c(OCC)c(OCC)c2)c2cc3cc(C)ccc3nc21 [Decoy415] | Inactive (Decoy) |
| CCOC(=O)c1[nH]c(C)c(C(=O)C2=C(O)C(=O)N(CCCN(C)C)[C@@H]2c2cc(OC)c(OC)c(OC)c2)c1C [Decoy593] | Inactive (Decoy) |
| COc1ccc(S(=O)(=O)NNC(=O)CCCCC(=O)NNS(=O)(=O)c2ccc(OC)cc2)cc1 [Decoy571] | Inactive (Decoy) |
| COc1ccc(CCNC(=O)CN(c2ccc(F)cc2)S(=O)(=O)c2ccc(OC)c(OC)c2)cc1OC [Decoy713] | Inactive (Decoy) |
| CCOC(=O)CNC(=O)[C@@H](c1ccc(F)cc1)N(C(=O)c1snc(C(N)=O)c1N)c1ccccc1F [Decoy587] | Inactive (Decoy) |
| Cc1ccc(Nc2cc(C)nc3cc(C(F)(F)F)ccc23)c(Br)c1 [Decoy563] | Inactive (Decoy) |
| COc1cc(/C=C/C(=O)O[C@H]2[C@H](O)[C@@H](COC(=O)/C=C/c3ccc(O)cc3)O[C@@]2(CO)O[C@H]2O[C@H](CO)[C@@H](O)[C@H](O)[C@H]2O)ccc1O [Decoy706] | Inactive (Decoy) |
| CC[C@H](c1nnnn1C[C@H]1CCCO1)N(Cc1ccc(C)cc1)Cc1cc2cc(OC)c(OC)cc2[nH]c1=O [Decoy698] | Inactive (Decoy) |
| CCOC(=O)CNS(=O)(=O)c1cc(-c2nnc(Nc3ccc(OCC(=O)NC)cc3)c3ccccc23)ccc1C [Decoy401] | Inactive (Decoy) |
| C=C[C@](C)(O)CC/C=C(\C)C(=O)OC[C@H]1O[C@@H](O[C@@](C)(C=C)CC/C=C(\C)C(=O)O)[C@H](O)[C@@H](OC(=O)/C(C)=C/CC[C@](C)(O)C=C)[C@@H]1O [Decoy662] | Inactive (Decoy) |
| C=CCn1c(SCC(=O)Nc2sc(C(=O)OCC)c(C)c2C(=O)OCC)nc2sc3c(c2c1=O)CCCC3 [Decoy554] | Inactive (Decoy) |

| SMILES | Type |
| --- | --- |
| CCOC(=O)c1c(NC(=O)CSc2n[nH]c(N/N=C/c3ccc(F)cc3)n2)sc2c1CCCC2 [Decoy437] | Inactive (Decoy) |
| CCOC(=O)c1ccc(NC(=O)CSc2nnc(CNC(=O)COc3ccccc3)n2-c2cccc(C)c2)cc1 [Decoy473] | Inactive (Decoy) |
| CNC(=O)Cn1c(=O)[nH]c(NC)c(C(c2ccc(Cl)cc2)c2c(NC)[nH]c(=O)n(CC(=O)NC)c2=O)c1=O [Decoy363] | Inactive (Decoy) |
| COc1ccccc1OCCNC[C@H](O)CN(CCOc1ccccc1OC)C[C@H](O)COc1cccc2[nH]c3ccccc3c12 [Decoy708] | Inactive (Decoy) |
| COc1ccccc1NS(=O)(=O)c1ccc(O)c(C(=O)OCC(=O)c2ccc3c(c2)NC(=O)CO3)c1 [Decoy538] | Inactive (Decoy) |
| COc1ccc([N+](=O)[O-])cc1NC(=S)N[C@@H](NC(=O)c1ccco1)C(Cl)(Cl)Cl [Decoy690] | Inactive (Decoy) |
| CC1=C(/C(O)=N/c2ccc(S(N)(=O)=O)cc2)[C@@H](c2ccco2)C(C#N)=C(SCC(=O)Nc2ccc(F)cc2)N1 [Decoy544] | Inactive (Decoy) |
| CCOC(=O)CNC(=O)CN1CCOCCOCCN(CC(=O)NCC(=O)OCC)CCOCCOCC1 [Decoy595] | Inactive (Decoy) |
| CCCCCCCCCCC/C=C/C(=O)N[C@@H]1[C@@H](O[C@H]2O[C@@H](CO)[C@@H](O)[C@@H](O)[C@H]2NC(C)=O)O[C@@H](C[C@H](O)[C@H]2O[C@@H](n3ccc(=O)[nH]c3=O)[C@@H](O)[C@H]2O)[C@@H](O)[C@H]1O [Decoy558] | Inactive (Decoy) |
| COC(=O)c1sc(NC(=O)c2ccc(C(=O)Nc3sc(C(=O)OC)c(C)c3C(=O)OC)cc2)c(C(=O)OC)c1C [Decoy394] | Inactive (Decoy) |
| COc1cc([N+](=O)[O-])cc(/C=N/NC(=O)CSc2nnc(-c3cccc(Br)c3)n2C)c1O [Decoy639] | Inactive (Decoy) |
| CCCCCOc1ccc([C@H]2C(C(=O)c3ccc4c(c3)OCCO4)=C(O)C(=O)N2CCCN2CCOCC2)cc1OCC [Decoy434] | Inactive (Decoy) |
| C=CCOC(=O)[C@H]1O[C@@H](OC(=O)c2cc(S(N)(=O)=O)c(Cl)cc2NCc2ccco2)[C@H](O)[C@@H](O)[C@@H]1O [Decoy370] | Inactive (Decoy) |
| Cc1cccn2c(=O)c(/C=C3\SC(=S)N(CCCCCC(=O)O)C3=O)c(NCCCn3ccnc3)nc12 [Decoy451] | Inactive (Decoy) |
| COC(=O)[C@@H](/C(=N/N)C(=O)Nc1cc(Cl)ccc1Cl)c1nc2ccc([N+](=O)[O-])cc2nc1O [Decoy349] | Inactive (Decoy) |
